The test system of one test is NICD (Notch intracellular domain) CSL-bla reporter in HeLa cells. Kind of test: Notch assay (CellSensor T-REx NICD CSL-bla HeLa beta-lactamase reporter; Method 1 / Method 2). Type of test: cell-based. The following applies: Homo sapiens, 10 μM compound, Method 1 (10× compound prepared in assay medium, added to plated cells), read-out: inhibiton (%) at 10 μM. The essentials:
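HeLa cells carrying doxycycline-inducible NICD and a CSL-driven beta-lactamase reporter, 10^3 cells/well, were treated with compound plus doxycycline for 16-20 h at 37 °C. CCF4-AM substrate was loaded for 4 h at room temperature; background-subtracted blue (460 nm)/green (530 nm) emission ratio taken per well.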
On to `CC(C)CCN1CC2N(C(=O)OCc3cccc4ccccc34)O[C@H](CC(N)=O)C(=O)N2[C@@H](Cc2ccccc2)C1=O` (stereo partly drawn) [Compound I-21, (3R,6S)-naphthalen-1-ylmethyl 3-(2-amino-2-oxoethyl)-6-benzyl-8-isopentyl-4,7-dioxohexahydropyrazino[2,1-c][1,2,4]oxadiazine-1(6H)-carboxylate], for which the inhibition at 10 µM was 60%.

The test is the same for the next values; noted with them: Homo sapiens, 10 μM compound, Method 2 (40 nL of 1000× compound added to plate with Echo), read-out: inhibiton (%) at 10 μM.
Regarding `CC(C)CCOC(=O)N1O[C@H](C)C(=O)N2C1CN([C@@H](Cc1ccccc1)C(=O)NCCO)C(=O)[C@@H]2Cc1ccccc1` (stereo partly drawn) [Compound I-88, isopentyl (3R,6S)-6-benzyl-8-((S)-1-((2-hydroxyethyl)amino)-1-oxo-3-phenylpropan-2-yl)-3-methyl-4,7-dioxohexahydropyrazino[2,1-c][1,2,4]oxadiazine-1(6H)-carboxylate], the inhibition at 10 µM is 63.9%.

`NC(=O)C[C@H]1C(=O)N(CCc2cccc3ccccc23)CC2N(C(=O)OCC3CCCCC3)O[C@H](Cc3ccc(O)cc3)C(=O)N21` (stereo partly drawn) [Compound I-49, (3R,6S)-cyclohexylmethyl 6-(2-amino-2-oxoethyl)-3-(4-hydroxybenzyl)-8-(2-(naphthalen-1-yl)ethyl)-4,7-dioxohexahydropyrazino[2,1-c][1,2,4]oxadiazine-1(6H)-carboxylate]: the inhibition at 10 µM stood at 92.6%. Take `CC(C)C[C@H]1ON(C(=O)OCc2ccccc2)C2CN(C3CCN(C)CC3)C(=O)[C@H](CCCCN(Cc3ccccc3)Cc3ccccc3)N2C1=O` (stereo partly drawn) [Compound I-144, benzyl (3R,6S)-6-(4-(dibenzylamino)butyl)-3-isobutyl-8-(1-methylpiperidin-4-yl)-4,7-dioxohexahydropyrazino [2,1-c][1,2,4]oxadiazine-1(6H)-carboxylate]: the inhibition at 10 µM was found to be 78.1%. Take `CCCC[C@@H](C(=O)NCCCc1ccccc1)N1CC2N(C(=O)OCCc3ccccc3)O[C@H](CC(C)C)C(=O)N2[C@@H](CCC(N)=O)C1=O` (stereo partly drawn) [Compound I-124, phenethyl (3R,6S)-6-(3-amino-3-oxopropyl)-3-isobutyl-4,7-dioxo-8-((S)-1-oxo-1-((3-phenylpropyl)amino)hexan-2-yl)hexahydropyrazino[2,1-c][1,2,4]oxadiazine-1(6H)-carboxylate]: the inhibition at 10 µM is 57.1%. Consider `O=C(NCCc1ccccc1)[C@H](Cc1ccccc1)N1CC2N(C(=O)OCCc3ccc(O)cc3)O[C@H](Cc3ccc(O)cc3)C(=O)N2[C@@H](Cc2ccc(O)cc2)C1=O` (stereo partly drawn) [Compound I-116, 4-hydroxyphenethyl (3R,6S)-3,6-bis(4-hydroxybenzyl)-4,7-dioxo-8-((S)-1-oxo-1-(phenethylamino)-3-phenylpropan-2-yl)hexahydropyrazino[2,1-c][1,2,4]oxadiazine-1(6H)-carboxylate], for which the inhibition at 10 µM is 62.5%.

As for `CC(C)C[C@H]1ON(CCCC2CCN(S(=O)(=O)c3cccnc3)CC2)C2CN(C3CCN(C)CC3)C(=O)[C@H](CC(C)C)N2C1=O` (stereo partly drawn) [Compound I-150, (3R,6S)-3,6-diisobutyl-8-(1-methylpiperidin-4-yl)-1-(3-(1-(pyridin-3-ylsulfonyl)piperidin-4-yl)propyl)tetrahydropyrazino [2,1-c][1,2,4]oxadiazine-4,7(3H,6H)-dione], the inhibition at 10 µM worked out at 69.1%. Still for that read-out and setting: the result for `CC(C)C[C@H]1ON(C(=O)OCCc2ccccc2)C2CN([C@@H](Cc3ccccc3)C(=O)NCCCc3ccccc3)C(=O)[C@H](CCC(N)=O)N2C1=O` (stereo partly drawn) [Compound I-123, phenethyl (3R,6S)-6-(3-amino-3-oxopropyl)-3-isobutyl-4,7-dioxo-8-((S)-1-oxo-3-phenyl-1-((3-phenylpropyl)amino)propan-2-yl)hexahydropyrazino[2,1-c][1,2,4]oxadiazine-1(6H)-carboxylate] reads 52.3%; that for `CCCC[C@@H](C(=O)NCCC(C)C)N1CC2N(C(=O)OCCc3ccc(O)cc3)O[C@H](CC(C)C)C(=O)N2[C@@H](Cc2ccc(O)cc2)C1=O` (stereo partly drawn) [Compound I-97, 4-hydroxyphenethyl (3R,6S)-6-(4-hydroxybenzyl)-3-isobutyl-8-((S)-1-(isopentylamino)-1-oxohexan-2-yl)-4,7-dioxohexahydropyrazino[2,1-c][1,2,4]oxadiazine-1(6H)-carboxylate], 57.3%.

For the compound `CC(C)C[C@H]1C(=O)N(CCc2ccc(O)cc2)CC2N(C(=O)OCCc3ccc(O)cc3)O[C@H](Cc3ccc(O)cc3)C(=O)N21` (stereo partly drawn) [Compound I-41, (3R,6S)-4-hydroxyphenethyl 3-(4-hydroxybenzyl)-8-(4-hydroxyphenethyl)-6-isobutyl-4,7-dioxohexahydropyrazino[2,1-c][1,2,4]oxadiazine-1(6H)-carboxylate], the inhibition at 10 µM turned out to be 59.3%.

`CC(C)C[C@H]1ON(C(=O)OCCc2ccc(O)cc2)C2CN([C@@H](Cc3ccccc3)C(=O)NCCc3ccccc3)C(=O)[C@H](Cc3ccc(O)cc3)N2C1=O` (stereo partly drawn) [Compound I-93, 4-hydroxyphenethyl (3R,6S)-6-(4-hydroxybenzyl)-3-isobutyl-4,7-dioxo-8-((S)-1-oxo-1-(phenethylamino)-3-phenylpropan-2-yl)hexahydropyrazino[2,1-c][1,2,4]oxadiazine-1(6H)-carboxylate]: the inhibition at 10 µM came out at 76.3%. Turning to `CC(C)CCCNC(=O)[C@H](Cc1ccc(O)cc1)N1CC2N(C(=O)OCCc3ccc(O)cc3)O[C@H](Cc3ccccc3)C(=O)N2[C@@H](Cc2ccc(O)cc2)C1=O` (stereo partly drawn) [Compound I-110, 4-hydroxyphenethyl (3R,6S)-3-benzyl-6-(4-hydroxybenzyl)-8-((S)-3-(4-hydroxyphenyl)-1-((4-methylpentyl)amino)-1-oxopropan-2-yl)-4,7-dioxohexahydropyrazino[2,1-c][1,2,4]oxadiazine-1(6H)-carboxylate], the inhibition at 10 µM amounted to 75.2%.

Consider `CC(C)[C@H]1C(=O)N(CCc2cccc3ccccc23)CC2N(C(=O)OCc3ccccc3)O[C@H](Cc3ccc(O)cc3)C(=O)N21` (stereo partly drawn) [Compound I-44, (3R,6S)-benzyl 3-(4-hydroxybenzyl)-6-isopropyl-8-(2-(naphthalen-1-yl)ethyl)-4,7-dioxohexahydropyrazino[2,1-c][1,2,4]oxadiazine-1(6H)-carboxylate], for which the inhibition at 10 µM is 63.1%. Consider `CC(C)CCCNC(=O)[C@H](Cc1ccc(O)cc1)N1CC2N(C(=O)OCCC(C)C)O[C@H](CC(C)C)C(=O)N2[C@@H](Cc2ccc(O)cc2)C1=O` (stereo partly drawn) [Compound I-98, isopentyl (3R,6S)-6-(4-hydroxybenzyl)-8-((S)-3-(4-hydroxyphenyl)-1-((4-methylpentyl)amino)-1-oxopropan-2-yl)-3-isobutyl-4,7-dioxohexahydropyrazino [2,1-c][1,2,4]oxadiazine-1(6H)-carboxylate], for which the inhibition at 10 µM worked out at 60.4%. With `NC(=O)CC[C@H]1C(=O)N([C@@H](Cc2ccccc2)C(=O)NCCCc2ccccc2)CC2N(C(=O)OCCc3ccccc3)O[C@H](Cc3ccccc3)C(=O)N21` (stereo partly drawn) [Compound I-125, phenethyl (3R,6S)-6-(3-amino-3-oxopropyl)-3-benzyl-4,7-dioxo-8-((S)-1-oxo-3-phenyl-1-((3-phenylpropyl)amino)propan-2-yl)hexahydropyrazino [2,1-c][1,2,4]oxadiazine-1(6H)-carboxylate], the inhibition at 10 µM stood at 59.6%. Still for that read-out and setting: the result for `CC(C)C[C@H]1ON(C(=O)OCC2CCCCC2)C2CN(C3CCNCC3)C(=O)[C@H](CC(C)C)N2C1=O` (stereo partly drawn) [Compound I-135, cyclohexylmethyl (3R,6S)-3,6-diisobutyl-4,7-dioxo-8-(piperidin-4-yl)hexahydropyrazino[2,1-c][1,2,4]oxadiazine-1(6H)-carboxylate] reads 110%; that for `CCCCOC(=O)N1O[C@H](CCC(N)=O)C(=O)N2C1CN(CCO)C(=O)[C@@H]2C` (stereo partly drawn) [Compound I-50, (3R,6S)-butyl 3-(3-amino-3-oxopropyl)-8-(2-hydroxyethyl)-6-methyl-4,7-dioxohexahydropyrazino[2,1-c][1,2,4]oxadiazine-1(6H)-carboxylate], 64.6%.

With `O=C(NCCc1ccccc1)[C@H](Cc1ccccc1)N1CC2N(C(=O)OCCc3ccc(O)cc3)O[C@H](Cc3ccc(O)cc3)C(=O)N2[C@@H](Cc2ccccc2)C1=O` (stereo partly drawn) [Compound I-83, 4-hydroxyphenethyl (3R,6S)-6-benzyl-3-(4-hydroxybenzyl)-4,7-dioxo-8-((S)-1-oxo-1-(phenethylamino)-3-phenylpropan-2-yl)hexahydropyrazino [2,1-c][1,2,4]oxadiazine-1(6H)-carboxylate], the inhibition at 10 µM came out at 76.2%. Turning to `CCCC[C@@H](C(=O)NCCCC(C)C)N1CC2N(C(=O)OCCc3ccc(O)cc3)O[C@H](CC(C)C)C(=O)N2[C@@H](Cc2ccc(O)cc2)C1=O` (stereo partly drawn) [Compound I-101, 4-hydroxyphenethyl (3R,6S)-6-(4-hydroxybenzyl)-3-isobutyl-8-((S)-1-((4-methylpentyl)amino)-1-oxohexan-2-yl)-4,7-dioxohexahydropyrazino[2,1-c][1,2,4]oxadiazine-1(6H)-carboxylate], the inhibition at 10 µM was determined as 54.4%. `CCCCCOC(=O)N1O[C@H](CC(C)C)C(=O)N2C1CN([C@@H](Cc1ccc(O)cc1)C(=O)NCCCC(C)C)C(=O)[C@@H]2Cc1ccc(O)cc1` (stereo partly drawn) [Compound I-100, pentyl (3R,6S)-6-(4-hydroxybenzyl)-8-((S)-3-(4-hydroxyphenyl)-1-((4-methylpentyl)amino)-1-oxopropan-2-yl)-3-isobutyl-4,7-dioxohexahydropyrazino [2,1-c][1,2,4]oxadiazine-1(6H)-carboxylate]: the inhibition at 10 µM was 63.8%. Turning to `CC[C@H](C)[C@H]1C(=O)N(CCc2cccc3ccccc23)CC2N(C(=O)OCCc3ccc(O)cc3)O[C@H](Cc3ccc(O)cc3)C(=O)N21` (stereo partly drawn) [Compound I-46, (3R,6S)-4-hydroxyphenethyl 6-((S)-sec-butyl)-3-(4-hydroxybenzyl)-8-(2-(naphthalen-1-yl)ethyl)-4,7-dioxohexahydropyrazino[2,1-c][1,2,4]oxadiazine-1(6H)-carboxylate], the inhibition at 10 µM was 75.6%.

(Values after patent US20230374034A1, “NOVEL BICYCLIC COMPOUNDS” (PRISM BIOLAB CO., LTD., priority 2020, published 2023).)
